Measurements as given in patent US5843959A, “Methods and bicyclic polyamine compositions for the treatment of inflammation” (University of Florida Research Foundation, Inc., priority 1997, dated 1998).
Values joined by “and” are separate entries in the source; they are usually repeats but may differ in a detail not shown here. Equal entries are not always repeated. “Also recorded” adds a separate entry of the source.

Tests used:
[1] = system: adjuvant-induced arthritis
[2] = system: adjuvant-induced arthritis; assay: Adjuvant-induced arthritis model in Lewis rats (Table 7); conditions: p.o. 5 days, DiPIPs 100 mg/kg, Voltaren and indomethacin 6 mg/kg
Method: Four groups consisting of 6 male Lewis rats weighing 150-200 g were injected subcutaneously at the base of the tail with 0.1 ml of CFA. Drugs to be assayed were administered 5 days beginning on the day of the adjuvant injection. The paw volume of the right and left rear paw of each rat were measured on the day of adjuvant injection and at regular intervals for 30 days thereafter.
The emulsion was injected subcutaneously at the base of the tail and induced the arthritic state. Measurements of paw volume were made for 30 days to monitor paw swelling. Drug treatment began on Day 0.
Four groups consisting of 10 male Lewis rats weighing 150-200 g were injected subcutaneously at the base of the tail with 0.1 ml of CFA. Drugs to be assayed were administered for 5 days beginning on the day of the adjuvant injection.

[3] = system: type II collagen-induced arthritis; assay: Prevention of type II collagen-induced arthritis in mice; format: in vivo, mouse (DBA/1J)
Method: The purpose of this study was to test PIP[4,4,4] in an experimental model of arthritis in DBA/1J mice by observing the onset, duration and remission of inflammation utilizing type II collagen. Twenty male DBA/1J mice, equally divided into two groups of ten animals, were immunized with a single intradermal injection of native type II chick collagen (100 μg/animal, intradermally) in Complete Freund's Adjuvant (CFA) on Day 0. […] On Day 21, both groups received a challenge dose of type II collagen (100 μg/animal, intradermally at the base of the tail, in 50 μl CFA). Daily joint measurements were recorded once per day on Days 20-40. Joints were measured using a constant tension caliper (Mitutoyo Digimatic Thickness Gauge). All mice were measured before the start of the study (Day -1) to obtain baseline readings at three joints on the right and left hindlimb (paw thickness, ankle width and knee width) and two joints of the right and left forelimb (paw thickness and elbow width). […] Four of ten mice treated with PIP[4,4,4] died or were sacrificed in extremis, during the treatment period.

[4] = system: BALB/c responder splenocytes with CBA/J stimulator cells; assay: Mixed lymphocyte response (MLR); format: cell-based, mouse (BALB/c; conditions: for Proliferative response (CPM), Mean ± SD: MLR, 5 days
Method: This study examined the potential immunomodulatory activities of PIP[4,4,4] on mouse spleen cells using in vitro techniques. The effect of the compound on the ability of murine splenocytes to respond to the […] mitogen concanavalin A (Con A) and the B cell mitogen lipopolysaccharide (LPS) was studied. […] In addition, the compound was tested for its effect on the mixed lymphocyte response (MLR). The MLR is an in vitro manifestation of cell-mediated immunity in which T cells respond to differences in major histocompatibility complex (MHC) class II molecules (Ia antigens) expressed on foreign or allogeneic leukocytes (primarily B cells and […]/monocytes).
a. Preparation of cells--Under sterile conditions, spleens were removed from BALB/c (H-2^d) and CBA/J (H-2^k) mice. BALB/c splenocytes were used as responder cells in the mitogen assays and the MLR assays, whereas CBA/J cells were used as stimulator cells in the MLR assays. […] Cells were exposed to various concentrations of the test compounds for the entire culture period. The initial dilutions in medium were filter sterilized to maintain aseptic conditions.
c. […] Thus, a BALB/c (2×10^5 cells/well) anti-CBA/J (8×10^5 cells/well) MLR combination was used in these studies. CBA/J spleen cells were irradiated with 2,000 R to prevent them from responding to BALB/c MHC antigens. Triplicate wells were set up in 96-well flat-bottom microtiter plates for all treated cultures and positive controls (100% of control) were performed in replicates of nine wells. Plates were incubated at 37° C. in a humidified CO2 incubator for 5 days, pulsed with 1 μCI […]/well for 6-16 hours, harvested and counted in a liquid scintillation counter. All data were processed using Lotus 1-2-3 and SigmaPlot software.

[5] = 100 mg/kg p.o. daily for 5 consecutive days
[6] = Day 19, individual rat, p.o. × 5: PIP[4,4,4] 100, hydrocortisone 30, indomethacin 5 mg/kg

C(CCNCC1CCNCC1)CNCC1CCNCC1 [PIP[4,4,4], N,N'-Bis(4-piperidinylmethyl)-1,4-butanediamine]
Acute and late phase swelling (in words) [1, 5]: reduced both part of the acute phase and inhibited the development of the late phase swelling in the contralateral paw | Signs of polyarthritis in the paws (in words) [1, 5]: did not prevent the appearance of signs of polyarthritis in the paws | Inhibition % B (5-0) ([1]; 5th day after 5 doses, p.o.: PIP[4,4,4] 100, hydrocortisone 30, indomethacin 5 mg/kg, >30% significant): 26% | Net swelling of paw volume A (1-0), average ([1]; Day 1 - Day 0, average, p.o. × 5: PIP[4,4,4] 100, hydrocortisone 30, indomethacin 5 mg/kg): 0.74 mL | Net swelling of paw volume B (5-0), average ([1]; Day 5 - Day 0, average, p.o. × 5: PIP[4,4,4] 100, hydrocortisone 30, indomethacin 5 mg/kg): 1.22 mL | Net swelling of paw volume B (5-0) ([1]; Day 5 - Day 0, individual rat, p.o. × 5: PIP[4,4,4] 100, hydrocortisone 30, indomethacin 5 mg/kg): 1.17 mL and 1.49 mL and 1.04 mL and 1.37 mL and 1.03 mL | Net swelling of paw volume C (5-1), average ([1]; Day 5 - Day 1, average, p.o. × 5: PIP[4,4,4] 100, hydrocortisone 30, indomethacin 5 mg/kg): 0.48 mL | Net swelling of paw volume C (5-1) ([1]; Day 5 - Day 1, individual rat, p.o. × 5: PIP[4,4,4] 100, hydrocortisone 30, indomethacin 5 mg/kg): 0.34 mL and 0.70 mL and 0.50 mL and 0.52 mL | Polyarthritis E (ears) [1, 6]: - | Polyarthritis N (noses) [1, 6]: - | Polyarthritis P (paws) [1, 6]: + | Polyarthritis T (tails) [1, 6]: - | B.W. Gain (18-0), average ([1]; average, p.o. × 5: PIP[4,4,4] 100, hydrocortisone 30, indomethacin 5 mg/kg): 25 g | Inhibition % A (1-0) ([1]; first day, after one dose, p.o.: PIP[4,4,4] 100, hydrocortisone 30, indomethacin 5 mg/kg, >30% significant): 11% | B.W. Gain (18-0) ([1]; individual rat, p.o. × 5: PIP[4,4,4] 100, hydrocortisone 30, indomethacin 5 mg/kg): 20 g and 35 g and 5 g and 30 g | Inhibition % C (5-1) ([1]; paw volume change Day 1 to Day 5, p.o. × 5: PIP[4,4,4] 100, hydrocortisone 30, indomethacin 5 mg/kg, >30% significant): 41% | Net swelling of paw volume D (14-0), average ([1]; untreated paw, Day 14 - Day 0, average, p.o. × 5: PIP[4,4,4] 100, hydrocortisone 30, indomethacin 5 mg/kg): 0.29 mL | Net swelling of paw volume D (14-0) ([1]; untreated paw, Day 14 - Day 0, individual rat, p.o. × 5: PIP[4,4,4] 100, hydrocortisone 30, indomethacin 5 mg/kg): 0.25 mL and 0.43 mL and 0.23 mL and 0.34 mL and 0.20 mL | Inhibition % D (14-0) ([1]; untreated paw, Day 14 relative to Day 0, p.o. × 5: PIP[4,4,4] 100, hydrocortisone 30, indomethacin 5 mg/kg, >30% significant): 36% | Inhibition % F (18-14) ([1]; untreated paw, Day 14 to Day 18, p.o. × 5: PIP[4,4,4] 100, hydrocortisone 30, indomethacin 5 mg/kg, >30% significant): 47% | Net swelling of paw volume E (18-0), average ([1]; untreated paw, Day 18 - Day 0, average, p.o. × 5: PIP[4,4,4] 100, hydrocortisone 30, indomethacin 5 mg/kg): 0.45 mL | Net swelling of paw volume E (18-0) ([1]; untreated paw, Day 18 - Day 0, individual rat, p.o. × 5: PIP[4,4,4] 100, hydrocortisone 30, indomethacin 5 mg/kg): 0.35 mL and 0.55 mL and 0.37 mL and 0.45 mL and 0.53 mL | Net swelling of paw volume F (18-14), average ([1]; untreated paw, Day 18 - Day 14, average, p.o. × 5: PIP[4,4,4] 100, hydrocortisone 30, indomethacin 5 mg/kg): 0.16 mL | Net swelling of paw volume F (18-14) ([1]; untreated paw, Day 18 - Day 14, individual rat, p.o. × 5: PIP[4,4,4] 100, hydrocortisone 30, indomethacin 5 mg/kg): 0.10 mL and 0.12 mL and 0.14 mL and 0.11 mL and 0.33 mL | Inhibition % E (18-0) ([1]; untreated paw, Day 18 relative to Day 0, p.o. × 5: PIP[4,4,4] 100, hydrocortisone 30, indomethacin 5 mg/kg, >30% significant): 40% | Weight gain reductions (in words) ([1]; vs vehicle-treated animals, 18 day study): did not affect weight gain reductions | % FINAL INHIBITION ([2]; Day 28-0): 58% | FINAL DAY 28-0 (paw volume) [2]: .801 | INITIAL DAY 14-0 (paw volume) [2]: .496 | Toxicity of compound administration (in words) ([3]; 75 mg/kg i.p. daily, dosage decreased to 50 mg/kg on Day 26): overt toxicity | Day on which decrease in joint measurements first evident ([3]; i.p. daily from Day 20, 75 mg/kg): ≤ 25 days | Mice died or sacrificed in extremis ([3]; i.p. daily from Day 20, 75 then 50 mg/kg, during treatment period): Four of ten | Joint measurements / degree of inflammation (in words) ([3]; i.p. daily from Day 20, 75 then 50 mg/kg, vs saline control): Joint measurements decreased; also recorded: significantly less than that in mice treated with equal volumes of saline (control) | Effect on MLR (in words) [4]: MLR was inhibited by PIP[4,4,4] primarily at 10 and 100 μm | Proliferative response (CPM), Mean ± SD ([4]; drug 0.010 μm): 330859 ± 11640 CPM | Proliferative response (CPM), Mean ± SD ([4]; drug 0.100 μm): 411919 ± 6106 CPM | Proliferative response (CPM), Mean ± SD ([4]; drug 1.000 μm): 54594 ± 11873 CPM
